Assay results reported in article PMC5354456, “Selective inhibition of RNA polymerase I transcription as a potential approach to treat African trypanosomiasis” (PLoS Neglected Tropical Diseases, 2017).
Entries after “also recorded” stand apart in the source; their conditions may differ.

Experiments:
[1] = tested on: bloodstream form Trypanosoma brucei; assay: Alamar Blue in vitro cytotoxicity assay, T. brucei SM; format: cell-based; details: for IC50: 72 hour Alamar Blue, mean ± SD, three biological replicates; for T. brucei more sensitive than human cells (selectivity range): compared with MCF10A and BJ3 human cell lines
Protocol: (§1) For proliferation assays, T. brucei SM was treated with inhibitors, and densities were determined using a Neubauer haemocytometer. Growth curves were repeated minimally in triplicate. For wash-out assays, T. brucei SM was treated with various concentrations of inhibitors. After two hours the cells were washed, resuspended in drug free HMI-9 medium, and cell proliferation was monitored using a haemocytometer. For the Alamar Blue in vitro cytotoxicity assay, 200 μl samples of T. brucei SM cells (2 x 10^3 cells ml^-1) were plated in 96 well plates, and incubated for 72 hours with two fold serial dilutions of the inhibitors. At 72 hours, 20 μl of Resazurin (0.125 mg ml^-1) (Sigma) was added, and the parasites were incubated for a further 18 hours. Fluorescence was measured using a Tecan infinite plate reader (excitation at 530 nm, emission at 585 nm). The change in fluorescence (minus the chemical only control) was plotted as a function of the concentration of chemical compound using the sigmoidal dose-response (variable slope) algorithm using GraphPad Prism version 5.

[2] = tested on: MCF10A human breast epithelial cell line; assay: Alamar Blue cytotoxicity assay, MCF10A cells; format: cell-based; details: for IC50: 72 hour Alamar Blue, mean ± SD; for T. brucei more sensitive than MCF10A: Alamar Blue IC50s compared; for selectivity index for T. brucei vs MCF10A (Alamar blue): IC50 MCF10A Alamar blue / IC50 T. brucei
Protocol: (§2) For the mammalian cell toxicity assays, either the spontaneously immortalised Michigan Cancer foundation (MCF10A) human breast epithelial cell line was used, or the BJ3 cell line, which is a human foreskin fibroblast cell line immortalized with the h-Tert catalytic subunit of telomerase. Cells were seeded in 96-well plates, and after 48 hours each well was treated in quintuplicate using ten different concentrations of CX-5461, quarfloxin, BMH-21 or suramin. After incubation for 48 hours, the cells were imaged and cell confluence was calculated using an IncuCyte ZOOM (Essen Biosciences). Cell confluence was normalised to a drug vehicle only control which was set to 100%. An Alamar Blue assay was also performed on the MCF10A cell line in the presence of the different Pol I transcription inhibitors. Here the Alamar Blue readout was also normalised to the vehicle only control. Experiments were performed as three biological replicates with the exception of the Incucyte data for MCF10A in the presence of BMH-21 and doxycycline which were obtained in duplicate. The dose response curves and IC50s were calculated using GraphPad Prism.

[3] = tested on: BJ3 human foreskin fibroblast cell line; assay: IncuCyte cell confluence assay, BJ3 fibroblasts; format: cell-based; details: for IC50: 48 hours IncuCyte, IC50 for cell death, mean ± SD; for selectivity index for T. brucei vs BJ3 human fibroblasts (Incucyte): IC50 BJ3 cell death / IC50 T. brucei
Protocol: as §2
In parallel, the BJ3 human foreskin fibroblast cell line that had been immortalised with hTert (the catalytic subunit of telomerase) was also tested for sensitivity to these compounds [46] (S2 Fig)(S3 Fig). The IC50 values corresponding to either growth arrest or cell death shown in S2 Fig were obtained by observing the cell images (S3 Fig) and determining the point where the specific dose curve plateaus at the higher concentrations. If the cells were morphologically sound, then the dose curve represented growth arrest of the cells. If the cells were dead, then the dose curve represented cell death. The IC50 values for cell death were used to calculate the selectivity index scores.

[4] = tested on: MCF10A human breast epithelial cell line; assay: IncuCyte cell confluence proliferation assay, MCF10A cells; format: cell-based; details: for IC50: 48 hour IncuCyte, mean ± SD; for selectivity index for T. brucei vs MCF10A (Incucyte): IC50 MCF10A Incucyte / IC50 T. brucei
Protocol: as §2

[5] = tested on: T. brucei SM; assay: Proliferation assay (growth curves, haemocytometer); format: cell-based, Trypanosoma brucei; details: growth over 48 hours
Protocol: as §1

[6] = tested on: Expression Site Body (ESB) and nucleolus of T. brucei; assay: Immunofluorescence microscopy of ESB, VEX1 foci and nucleolus; format: cell-based, Trypanosoma brucei; details: for cells with an ESB / ESB positive cells: one hour, G1 cells, untreated 64 ± 17%
Protocol: Trypanosomes were fixed in 2% paraformaldehyde, permeabilised with 0.1% NP-40 for 5 minutes at room temperature before incubation for one hour with an antibody against the nucleolar marker L1C6 [47] or anti-myc tag antibody (clone 4A6, EMD Millipore). Slides were subsequently incubated with a goat anti-mouse secondary antibody coupled to Alexa-594 (Molecular Probes), before mounting in Vectashield containing DAPI (Vector Laboratories). Microscopy was performed using a Zeiss Imager.M1 microscope equipped with a Zeiss AxioCam MRm camera and Axio Vision Rel 4.8 software. A Z-stack of images was taken at 200 nm intervals, and the images from the individual channels were processed using Image J software. For quantitation of ESB signal using YFP, VEX1 signal using the anti-myc tag antibody or nucleolar signal using the L1C6 antibody, the exposure time and contrast was uniformly adjusted across all conditions. Quantification of ESB and nucleolar signal was carried out using compressed stacks of all appropriate channels in which the images acquired on the Z-axis were analysed. The ESB and nucleolar status was recorded for a total of approximately 100 cells in G1 (two biological replicates of approximately 50 cells) for each condition.

[7] = tested on: T. brucei RPA2 Pol I subunit; assay: Western blot of YFP-RPA2 Pol I subunit; format: cell-based, Trypanosoma brucei; details: 3 μM, one hour, T. brucei TY-YFP-RPA2
Protocol: (A) The T. brucei TY-YFP-RPA2 cell line was incubated with various concentrations of BMH-21 for the time indicated in hours. As a control, T. brucei was also incubated with 800 nM of suramin. Lysate from 1 x 10^7 cell equivalents was blotted and probed with anti-TY (BB2) antibody. A band corresponding to T. brucei RPA2 is shown, as well as a Ponceau S stain of the blot to serve as a loading control. Size markers in kiloDaltons (kDa) are indicated. (TIF) Click here for additional data file.

[8] = tested on: T. brucei SM; assay: Wash-out assay; format: cell-based, Trypanosoma brucei; details: two hours incubation, then wash-out
Protocol: as §1

[9] = tested on: Pol I transcription (rDNA and VSG221 ES precursor transcripts); assay: RNA precursor transcript analysis by qRT-PCR; format: cell-based, Trypanosoma brucei
Protocol: RNA transcript analysis was performed using quantitative reverse transcription PCR (qRT-PCR). Total RNA was isolated using the RNeasy kit (Qiagen) and DNase treated with TURBO DNA-free kit (Invitrogen). Reverse transcription was performed using 100 ng RNA as a template for cDNA synthesis using random hexamer primers (Promega) and the Omniscript RT kit (Qiagen). qPCR was performed on the 7500 Fast Real-Time PCR system (Life Technologies) using Brilliant II SYBR Green QPCR Low ROX Master Mix (Agilent Technologies). DNase treated RNA without reverse transcriptase was used as a control. The amplification conditions for each primer pair were optimised, and the primer sequences are listed in S1 Table. Transcript levels were normalised against actin mRNA, and plotted as relative change relative to the zero hour time point.

[10] = tested on: T. b. rhodesiense; design: method as in PMID 20149544; details: similar Alamar Blue assay; read-out: IC50 suramin for T. b. rhodesiense; cited from earlier work

CN(C)CCNC(=O)c1cccn2c(=O)c3cc4ccccc4cc3nc12 [BMH-21]
IC50 [1]: 0.134 ± 0.008 µM
T. brucei more sensitive than human cells (selectivity range) [1]: 3-10 fold
IC50 [2]: 0.46 ± 0.08 µM
T. brucei more sensitive than MCF10A [2]: 3.4 fold
selectivity index for T. brucei vs MCF10A (Alamar blue) [2]: (3.4x)
IC50 [3]: 1.36 ± 0.22 µM
selectivity index for T. brucei vs BJ3 human fibroblasts (Incucyte) [3]: (10x)
IC50 [4]: 0.622 ± 0.34 µM
selectivity index for T. brucei vs MCF10A (Incucyte) [4]: (4.6x)
drug concentration that resulted in suppression of proliferative growth in T. brucei [5]: 300 nM
nucleolar structure (L1C6 marker) ([6]; 3 μM): nucleoli fragmenting into multiple foci
cells with an ESB ([6]; 3 μM): 1 ± 1.4%
VEX1 signal (ESB marker) ([6]; 3 μM, three hours): drastically reduced
degradation of the RPA2 Pol I subunit [7]: we did not see evidence for degradation of the RPA2 Pol I subunit

C[C@H]1c2cccc(O)c2C(=O)C2=C(O)[C@]3(O)C(=O)C(C(N)=O)=C(O)[C@@H](N(C)C)[C@@H]3[C@@H](O)[C@@H]21 [Doxycycline, doxycycline]
IC50 ([2]; Homo sapiens, MCF-10A): 50.7 ± 33.8 µM

Cc1cnc(CNC(=O)c2c(=O)c3ccc(N4CCCN(C)CC4)nc3n3c2sc2ccccc23)cn1 [CX-5461]
IC50 ([1]; Trypanosoma brucei): 0.279 ± 0.016 µM
T. brucei more sensitive than human cells (selectivity range) [1]: 25-35 fold
T. brucei more sensitive than MCF10A [2]: 25 fold
IC50 ([2]; Homo sapiens, MCF-10A): 6.89 ± 4.83 µM
selectivity index for T. brucei vs MCF10A (Alamar blue) [2]: (25x)
IC50 ([3]; Homo sapiens, Fibroblast): 9.78 ± 0.79 µM
selectivity index for T. brucei vs BJ3 human fibroblasts (Incucyte) [3]: (35x)
IC50 ([4]; Homo sapiens, MCF-10A): 7.84 ± 9.8 µM
selectivity index for T. brucei vs MCF10A (Incucyte) [4]: (28x)
drug concentration that resulted in suppression of proliferative growth in T. brucei [5]: 1000 nM
reversibility of inhibition of T. brucei proliferation [8]: irreversibly
repression of Pol I transcription ([9]; 1 μM, 15 minutes): specific knockdown of Pol I transcripts
nucleolar structure (L1C6 marker) ([6]; 3 μM): nucleoli fragmenting into multiple foci
cells with an ESB ([6]; 3 μM): 4.5 ± 0.7%
VEX1 signal (ESB marker) ([6]; 3 μM, three hours): drastically reduced

Cc1ccc(C(=O)Nc2ccc(S(=O)(=O)O)c3cc(S(=O)(=O)O)cc(S(=O)(=O)O)c23)cc1NC(=O)c1cccc(NC(=O)Nc2cccc(C(=O)Nc3cc(C(=O)Nc4ccc(S(=O)(=O)O)c5cc(S(=O)(=O)O)cc(S(=O)(=O)O)c45)ccc3C)c2)c1 [Suramin, suramin]
IC50 ([1]; Trypanosoma brucei): 0.063 ± 0.005 µM
IC50 ([2]; Homo sapiens, MCF-10A): 1640 ± 317 µM
IC50 ([3]; Homo sapiens, Fibroblast): 890 ± 127 µM
IC50 ([4]; Homo sapiens, MCF-10A): 1260 ± 90 µM
effect on Pol I and Pol II derived precursor transcript levels ([9]; 800 nM, 15 minutes): did not lead to reduced levels of any of these transcripts
nucleolar structure (L1C6 marker) ([6]; 800 nM): did not lead to significant changes in structure of the nucleoli
effect on ESB positive cells ([6]; 800 nM, one to three hours): only a marginal reduction in ESB positive cells
ESB as visualised using epitope tagged VEX1 ([6]; 800 nM, three hours): no specific disintegration of the ESB was observed
IC50 [10]: 0.053 µM

CN1CCC[C@H]1CCNC(=O)c1cn2c3c(c(N4CCC(c5cnccn5)C4)c(F)cc3c1=O)Oc1cc3ccccc3cc1-2 (some centres unmarked) [Quarfloxin, quarfloxin]
IC50 ([1]; Trypanosoma brucei): 0.155 ± 0.009 µM
T. brucei more sensitive than human cells (selectivity range) [1]: 18-40 fold
T. brucei more sensitive than MCF10A [2]: 29 fold
IC50 ([2]; Homo sapiens, MCF-10A): 4.44 ± 3.29 µM
selectivity index for T. brucei vs MCF10A (Alamar blue) [2]: (29x)
IC50 ([3]; Homo sapiens, Fibroblast): 2.72 ± 0.17 µM
selectivity index for T. brucei vs BJ3 human fibroblasts (Incucyte) [3]: (18x)
IC50 ([4]; Homo sapiens, MCF-10A): 6.24 ± 3.87 µM
selectivity index for T. brucei vs MCF10A (Incucyte) [4]: (40x)
drug concentration that resulted in suppression of proliferative growth in T. brucei [5]: 300 nM
reversibility of inhibition of T. brucei proliferation [8]: irreversibly
VSG221 precursor transcript reduced by ([9]; 1 μM, 15 minutes): 94.5 ± 1.9%
VSG pseudogene transcript reduced by ([9]; 1 μM, 15 minutes): 92.3 ± 1.6%
pre-rRNA Precursor 1 transcript levels reduced by (primer a) ([9]; 1 μM, 15 minutes): 98.5 ± 0.66%
rRNA Precursor 2 decreased by (primer b) ([9]; 1 μM, 15 minutes): 91.3 ± 2.6%
rRNA Precursors 2 and 3 reduced by (primer pair c) ([9]; 1 μM, 15 minutes): 83.4 ± 2.1%
rRNA Precursors 2 and 3 reduced by (primer pair d) ([9]; 1 μM, 15 minutes): 89.5 ± 2.7%
Pol II derived tubulin precursor transcript level ([9]; 1 μM, fifteen minutes): 129 ± 10.3 % normal
ESB positive cells ([6]; 300 nM): 30.5 ± 5%
ESB positive cells ([6]; 1 μM): 7.5 ± 0.7%
nucleolar structure (L1C6 marker) ([6]; 3 μM): nucleoli fragmenting into multiple foci
cells with an ESB ([6]; 3 μM): No cells contained an ESB; also recorded: none of the cells had an ESB
VEX1 signal (ESB marker) ([6]; 3 μM, three hours): drastically reduced
